Measurements as given in ChEMBL document CHEMBL5113453, “Design, synthesis, and biological evaluation of a new series of pyrazole derivatives: Discovery of potent and selective JNK3 kinase inhibitors” (Bioorg Med Chem, 2022).
pIC50: −log10 of the molar value.

Experiments:
Type in all cases: functional, cell-based
HL-60(TB) = test: Antiproliferative activity against human HL-60(TB) cells measured after 48 hrs by SRB assay; conditions: for pIC50: HL-60, 48 h; for TGI: HL-60, time 48 hrs
K562 = test: Antiproliferative activity against human K562 cells measured after 48 hrs by SRB assay; conditions: for pIC50: K562, 48 h; for TGI: K562, time 48 hrs
MOLT-4 = test: Antiproliferative activity against human MOLT-4 cells measured after 48 hrs by SRB assay; conditions: for pIC50: MOLT-4, 48 h; for TGI: MOLT-4, time 48 hrs
SR = test: Antiproliferative activity against human SR cells measured after 48 hrs by SRB assay; conditions: for pIC50: 48 h; for TGI: time 48 hrs
A549 = test: Antiproliferative activity against human A549 cells measured after 48 hrs by SRB assay; conditions: for pIC50: A549, 48 h; for TGI: A549, time 48 hrs
EKVX = test: Antiproliferative activity against human EKVX cells measured after 48 hrs by SRB assay; conditions: for pIC50: 48 h; for TGI: time 48 hrs
HOP-62 = test: Antiproliferative activity against human HOP-62 cells measured after 48 hrs by SRB assay; conditions: for pIC50: HOP-62, 48 h; for TGI: HOP-62, time 48 hrs
HOP-92 = test: Antiproliferative activity against human HOP-92 cells measured after 48 hrs by SRB assay; conditions: for pIC50: HOP-92, 48 h; for TGI: HOP-92, time 48 hrs
NCI-H23 = test: Antiproliferative activity against human NCI-H23 cells measured after 48 hrs by SRB assay; conditions: for pIC50: NCI-H23, 48 h; for TGI: NCI-H23, time 48 hrs
NCI-H460 = test: Antiproliferative activity against human NCI-H460 cells measured after 48 hrs by SRB assay; conditions: for pIC50: NCI-H460, 48 h; for TGI: NCI-H460, time 48 hrs
COLO 205 = test: Antiproliferative activity against human COLO 205 cells measured after 48 hrs by SRB assay; conditions: for pIC50: COLO 205, 48 h; for TGI: COLO 205, time 48 hrs
HT-29 = test: Antiproliferative activity against human HT-29 cells measured after 48 hrs by SRB assay; conditions: for pIC50: HT-29, 48 h; for TGI: HT-29, time 48 hrs
SW-620 = test: Antiproliferative activity against human SW-620 cells measured after 48 hrs by SRB assay; conditions: for pIC50: SW-620, 48 h; for TGI: SW-620, time 48 hrs
SF-268 = test: Antiproliferative activity against human SF-268 cells measured after 48 hrs by SRB assay; conditions: for pIC50: SF-268, 48 h; for TGI: SF-268, time 48 hrs
SF-295 = test: Antiproliferative activity against human SF-295 cells measured after 48 hrs by SRB assay; conditions: for pIC50: SF-295, 48 h; for TGI: SF-295, time 48 hrs
SF-539 = test: Antiproliferative activity against human SF-539 cells measured after 48 hrs by SRB assay; conditions: for pIC50: SF-539, 48 h; for TGI: SF-539, time 48 hrs
SNB-19 = test: Antiproliferative activity against human SNB-19 cells measured after 48 hrs by SRB assay; conditions: for pIC50: SNB-19, 48 h; for TGI: SNB-19, time 48 hrs
U-251 = test: Antiproliferative activity against human U-251 cells measured after 48 hrs by SRB assay; conditions: for pIC50: U-251, 48 h; for TGI: U-251, time 48 hrs
Malme-3M = test: Antiproliferative activity against human Malme-3M cells measured after 48 hrs by SRB assay; conditions: for pIC50: 48 h; for TGI: time 48 hrs
M14 = test: Antiproliferative activity against human M14 cells measured after 48 hrs by SRB assay; conditions: for pIC50: M14, 48 h; for TGI: M14, time 48 hrs
SK-MEL-2 = test: Antiproliferative activity against human SK-MEL-2 cells measured after 48 hrs by SRB assay; conditions: for pIC50: SK-MEL-2, 48 h; for TGI: SK-MEL-2, time 48 hrs
SK-MEL-5 = test: Antiproliferative activity against human SK-MEL-5 cells measured after 48 hrs by SRB assay; conditions: for pIC50: SK-MEL-5, 48 h; for TGI: SK-MEL-5, time 48 hrs
UACC-257 = test: Antiproliferative activity against human UACC-257 cells measured after 48 hrs by SRB assay; conditions: for pIC50: UACC-257, 48 h; for TGI: UACC-257, time 48 hrs
UACC-62 = test: Antiproliferative activity against human UACC-62 cells measured after 48 hrs by SRB assay; conditions: for pIC50: UACC-62, 48 h; for TGI: UACC-62, time 48 hrs
IGROV-1 = test: Antiproliferative activity against human IGROV-1 cells measured after 48 hrs by SRB assay; conditions: for pIC50: IGROV-1, 48 h; for TGI: IGROV-1, time 48 hrs
OVCAR-3 = test: Antiproliferative activity against human OVCAR-3 cells measured after 48 hrs by SRB assay; conditions: for pIC50: OVCAR-3, 48 h; for TGI: OVCAR-3, time 48 hrs
OVCAR-4 = test: Antiproliferative activity against human OVCAR-4 cells measured after 48 hrs by SRB assay; conditions: for pIC50: OVCAR-4, 48 h; for TGI: OVCAR-4, time 48 hrs
OVCAR-8 = test: Antiproliferative activity against human OVCAR-8 cells measured after 48 hrs by SRB assay; conditions: for pIC50: OVCAR-8, 48 h; for TGI: OVCAR-8, time 48 hrs
SK-OV-3 = test: Antiproliferative activity against human SK-OV-3 cells measured after 48 hrs by SRB assay; conditions: for pIC50: SK-OV-3, 48 h; for TGI: SK-OV-3, time 48 hrs
786-0 = test: Antiproliferative activity against human 786-0 cells measured after 48 hrs by SRB assay; conditions: for pIC50: 786-0, 48 h; for TGI: 786-0, time 48 hrs
A498 = test: Antiproliferative activity against human A498 cells measured after 48 hrs by SRB assay; conditions: for pIC50: A498, 48 h; for TGI: A498, time 48 hrs
CAKI-1 = test: Antiproliferative activity against human CAKI-1 cells measured after 48 hrs by SRB assay; conditions: for pIC50: CAKI-1, 48 h; for TGI: CAKI-1, time 48 hrs
RXF 393 = test: Antiproliferative activity against human RXF 393 cells measured after 48 hrs by SRB assay; conditions: for pIC50: RXF 393, 48 h; for TGI: RXF 393, time 48 hrs
SN12C = test: Antiproliferative activity against human SN12C cells measured after 48 hrs by SRB assay; conditions: for pIC50: 48 h; for TGI: time 48 hrs
PC-3 = test: Antiproliferative activity against human PC-3 cells measured after 48 hrs by SRB assay; conditions: for pIC50: PC-3, 48 h; for TGI: PC-3, time 48 hrs
MCF7 = test: Antiproliferative activity against human MCF7 cells measured after 48 hrs by SRB assay; conditions: for pIC50: MCF7, 48 h; for TGI: MCF7, time 48 hrs
Hs-578T = test: Antiproliferative activity against human Hs-578T cells measured after 48 hrs by SRB assay; conditions: for pIC50: 48 h; for TGI: time 48 hrs
MDA-MB-468 = test: Antiproliferative activity against human MDA-MB-468 cells measured after 48 hrs by SRB assay
WI-38 = test: Antiproliferative activity against human WI-38 cells measured by MTT assay

O=C(Nc1ccc(Cl)c(C(F)(F)F)c1)N1CCN(c2cc(-c3cn(-c4ccccc4)nc3-c3cccc(O)c3)ccn2)CC1
pIC50 (HL-60(TB)): 5.63
TGI (HL-60(TB)): 8.58 µM
pIC50 (K562): 5.67
TGI (K562): > 22 µM
pIC50 (MOLT-4): 6.03
TGI (MOLT-4): 7.58 µM
pIC50 (SR): 5.51
TGI (SR): > 22 µM
pIC50 (A549): 5.36
TGI (A549): > 22 µM
pIC50 (EKVX): 5.59
TGI (EKVX): 19.6 µM
pIC50 (HOP-62): 5.20
TGI (HOP-62): > 22 µM
pIC50 (HOP-92): 5.59
TGI (HOP-92): 15.9 µM
pIC50 (NCI-H23): 5.43
TGI (NCI-H23): 14.9 µM
pIC50 (NCI-H460): 5.61
TGI (NCI-H460): > 22 µM
pIC50 (COLO 205): 5.52
TGI (COLO 205): 9.39 µM
pIC50 (HT-29): 5.39
TGI (HT-29): > 22 µM
pIC50 (SW-620): 5.32
TGI (SW-620): > 22 µM
pIC50 (SF-268): 5.48
TGI (SF-268): > 22 µM
pIC50 (SF-295): 5.82
TGI (SF-295): 7.25 µM
pIC50 (SF-539): 5.38
TGI (SF-539): > 22 µM
pIC50 (SNB-19): 5.39
TGI (SNB-19): > 22 µM
pIC50 (U-251): 5.37
TGI (U-251): > 22 µM
pIC50 (Malme-3M): 5.48
TGI (Malme-3M): 8.95 µM
pIC50 (M14): 5.52
TGI (M14): 12.5 µM
pIC50 (SK-MEL-2): 5.45
TGI (SK-MEL-2): 7.57 µM
pIC50 (SK-MEL-5): 5.59
TGI (SK-MEL-5): 5.45 µM
pIC50 (UACC-257): 5.32
TGI (UACC-257): 14.3 µM
pIC50 (UACC-62): 5.57
TGI (UACC-62): 5.77 µM
pIC50 (IGROV-1): 5.29
TGI (IGROV-1): > 22 µM
pIC50 (OVCAR-3): 5.75
TGI (OVCAR-3): 11.5 µM
pIC50 (OVCAR-4): 5.69
TGI (OVCAR-4): > 22 µM
pIC50 (OVCAR-8): 5.33
TGI (OVCAR-8): > 22 µM
pIC50 (SK-OV-3): 5.19
TGI (SK-OV-3): > 22 µM
pIC50 (786-0): 5.40
TGI (786-0): > 22 µM
pIC50 (A498): 5.33
TGI (A498): 21 µM
pIC50 (CAKI-1): 5.38
TGI (CAKI-1): 19.4 µM
pIC50 (RXF 393): 5.62
TGI (RXF 393): 9.79 µM
pIC50 (SN12C): 5.49
TGI (SN12C): > 22 µM
pIC50 (PC-3): 6.01
TGI (PC-3): 17 µM
pIC50 (MCF7): 5.74
TGI (MCF7): 10.1 µM
pIC50 (Hs-578T): 5.47
TGI (Hs-578T): 15.8 µM
pIC50 (MDA-MB-468; MDA-MB-468, 48 h): 5.99
TGI (MDA-MB-468; MDA-MB-468, time 48 hrs): 7.22 µM
pIC50 (WI-38): < 4.70

O=C1c2ccccc2-c2n[nH]c3cccc1c23
pIC50 (HL-60(TB)): 4.38
TGI (HL-60(TB)): > 100 µM
pIC50 (K562): 4.31
TGI (K562): > 100 µM
pIC50 (MOLT-4): 4.69
TGI (MOLT-4): > 100 µM
pIC50 (SR): 4.88
TGI (SR): > 100 µM
pIC50 (A549): 4.83
TGI (A549): > 100 µM
pIC50 (EKVX): 4.70
TGI (EKVX): > 100 µM
pIC50 (HOP-62): 4.16
TGI (HOP-62): > 100 µM
pIC50 (HOP-92): 4.43
TGI (HOP-92): > 100 µM
pIC50 (NCI-H23): 4.62
TGI (NCI-H23): 58.1 µM
pIC50 (NCI-H460): 5.01
TGI (NCI-H460): > 100 µM
pIC50 (COLO 205): 4.71
TGI (COLO 205): > 100 µM
pIC50 (HT-29): 4.59
TGI (HT-29): > 100 µM
pIC50 (SW-620): 4.96
TGI (SW-620): > 100 µM
pIC50 (SF-268): 4.73
TGI (SF-268): > 100 µM
pIC50 (SF-295): 4.65
TGI (SF-295): 86.3 µM
pIC50 (SF-539): 4.49
TGI (SF-539): > 100 µM
pIC50 (SNB-19): 4.30
TGI (SNB-19): > 100 µM
pIC50 (U-251): 4.64
TGI (U-251): > 100 µM
pIC50 (Malme-3M): 4.78
TGI (Malme-3M): 58.9 µM
pIC50 (M14): < 4.00
TGI (M14): > 100 µM
pIC50 (SK-MEL-2): 4.54
TGI (SK-MEL-2): > 100 µM
pIC50 (SK-MEL-5): 4.84
TGI (SK-MEL-5): 37.5 µM
pIC50 (UACC-257): 4.53
TGI (UACC-257): > 100 µM
pIC50 (UACC-62): 4.84
TGI (UACC-62): 86.5 µM
pIC50 (IGROV-1): 4.95
TGI (IGROV-1): > 100 µM
pIC50 (OVCAR-3): 4.82
TGI (OVCAR-3): 92 µM
pIC50 (OVCAR-4): 4.50
TGI (OVCAR-4): > 100 µM
pIC50 (OVCAR-8): 4.66
TGI (OVCAR-8): > 100 µM
pIC50 (SK-OV-3): 4.68
TGI (SK-OV-3): > 100 µM
pIC50 (786-0): 4.57
TGI (786-0): > 100 µM
pIC50 (A498): 5.15
TGI (A498): 35.4 µM
pIC50 (CAKI-1): 5.45
TGI (CAKI-1): 18.2 µM
pIC50 (RXF 393): 4.68
TGI (RXF 393): > 100 µM
pIC50 (SN12C): 4.83
TGI (SN12C): > 100 µM
pIC50 (PC-3): 4.63
TGI (PC-3): > 100 µM
pIC50 (MCF7): 4.31
TGI (MCF7): > 100 µM
pIC50 (Hs-578T): 4.26
TGI (Hs-578T): > 100 µM
pIC50 (WI-38): < 4.70
